Data taken from patent publication US11465984B2, “Compound having ERK kinase inhibitory activity and use thereof” (SHANGHAI HAIHE PHARMACEUTICAL CO., LTD., priority 2017, dated 2022).
pIC50: −log10 of the molar value. Where two headings read alike, the source gives them in different places.

Assays:
ERK2 kinase = ERK2 kinase (Homo sapiens (Human), UniProt P28482); assay: In vitro enzyme activity assay, ERK2 kinase (Z'-LYTE); type: biochemical
Procedure: Half inhibitory activity of the compounds of the invention against ERK2 kinase (IC50 value) was determined in this Example.
• Enzyme: extracellular signal-regulated kinase ERK2 kinase (PV3595, Invitrogen) • Kit: Z′-LYTE® Protein Kinase Assay Kit-Ser/Thr 3 Peptide (PV3176, Invitrogen) • Kit components: The substrate Z′-LYTE™ Ser/Thr 3 Peptide (PV3200) • The phosphorylation substrate Z′-LYTE™ Ser/Thr 3 Phospho-peptide (PV3215) • 5× kinase buffer: 250 mM HEPES (pH 7.5), 50 mM MgCl2, • 5 mM EGTA, 0.05% BRIJ-35 (PV3189, Invitrogen) • ATP (PV3227, Invitrogen) • Development Reagent A (PV3295, Invitrogen) • Development Buffer (P3127, Invitrogen) • Stop Reagent (P3094, Invitrogen) • Microplate reader: The multil-mode microplate reader PerkinElmer EnVision® • Microplate: black shallow 384-well microplate (6008269, PerkinElmer) (2). Assay Protocol:
The substrate Z′-LYTE™ Ser/Thr 3 Peptide, the phosphorylation substrate Z′-LYTE™ Ser/Thr 3 Phospho-peptide, 1× kinase buffer (5× kinase buffer was diluted with ultra pure water by five times), ATP, Development Reagent A, Development Buffer, Stop Reagent were balanced to room temperature for use. The screening concentrations for detecting the effect of the compounds of the invention on the ERK kinase activity were seven 3-fold serial dilutions starting from 1 μM (from 0.2 μM for the positive drug control) using 4% DMSO as co-solvent. 5 μL enzyme system (50 mM HEPES pH 7.5, 1 mM EGTA, 10 mM MgCl2, 0.01% Brij-35, 4 uM substrate, 0.8 ng/μL enzyme), 2.5 μL Compound, 2.5 μL 400 μM ATP were added into 384 well microplate, followed by incubation at room temperature for 60 min in the dark. After the reaction was completed, 5 μl the developing agent (Development Reagent A) diluted with the developing buffer (Development Buffer) was added to all reaction wells, followed by incubation at the room temperature for 60 min in the dark. 5 μL the terminating agent was added to each well to terminate the reaction. The fluorescence was determined using the multil-mode microplate reader PerkinElmer EnVision® (excitation wavelength 400 nm, emission wavelength 460 nm and 528 nm).
The inhibition rate of each well was calculated from 100% phosphorylation substrate well and 0% phosphorylation substrate well using the data analysis method below: phosphorylation %=1−{(emission rate×F100%−C100%)/[C0%−C100%+emission rate×(F100%−F0%)]}×100 inhibition %=100×(1−phosphorylation % of the test compound well/phosphorylation % of the 0% inhibition control) • wherein: • emission rate=fluorescence emission of the sample at 445 nm/fluorescence emission of the sample at 520 nm • F100%=the average fluorescence emission of the control well of 100% phosphorylation substrate at 520 nm • F0%=the average fluorescence emission of the control well of 0% phosphorylation substrate at 520 nm • C100%=the average fluorescence emission of the control well of 100% phosphorylation substrate at 445 nm • C0%=the average fluorescence emission of the control well of 0% phosphorylation substrate at 445 nm
Tests were carried out in duplicate. IC50 values were calculated from the inhibition of the kinase by the test compounds at a range of different concentrations.

[1] = system: human melanoma cell line A375; assay: In vitro cell study: proliferation of A375 cells (SRB); type: cell-based; conditions: A-375, 72 h incubation, read-out: IC50 against A375 cell
Procedure: The inhibitory activity of Compound P9 of the invention and the representative compounds of WO2017/114510A1 on the proliferation of human melanoma cell line A375 (IC50 value) was determined in this Example.
• Cell: human melanoma cell line A375 (CRL-1619™, ATCC) • Detection reagent: sulforhodamine B SRB (S9012, Sigma) • Microplate: 96 well microplate (3599, Corning) • Microplate reader: full-wavelength microplate reader (SpectraMax 190, Molecular Devices) (2). Assay Protocol:
Cells in logarithmic growth phase were seeded at appropriate density (3500/well) into 96-well microplates in the volume of 90 μL per well. After incubation in a CO2 incubator at 37° C. overnight, 10 μL of the compound at various concentrations or saline for medium control was added in triplicate and incubated for 72 h, and a blank well was set. […] The optical density (OD value) at the wavelength of 560 nm was measured using a full-wavelength microplate reader SpectraMax 190. The inhibition rate of the drug on the growth of the tumor cells was calculated according to the following formula: […]
The IC50 values were obtained by regression with four-parameter method using the software attached to the microplate reader. […]

Chain of ERK2 kinase (P28482 whole entry): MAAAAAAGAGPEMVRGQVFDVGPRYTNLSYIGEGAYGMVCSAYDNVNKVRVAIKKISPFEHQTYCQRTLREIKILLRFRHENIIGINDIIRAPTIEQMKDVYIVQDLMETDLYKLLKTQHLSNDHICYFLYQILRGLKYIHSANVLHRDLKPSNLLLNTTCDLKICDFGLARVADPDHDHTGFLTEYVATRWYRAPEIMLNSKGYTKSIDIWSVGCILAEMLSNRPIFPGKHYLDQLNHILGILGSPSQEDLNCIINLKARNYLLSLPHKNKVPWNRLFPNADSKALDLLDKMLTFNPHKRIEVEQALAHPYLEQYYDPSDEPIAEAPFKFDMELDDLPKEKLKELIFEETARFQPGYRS

- pIC50 (ERK2 kinase; class symbols, read-out: ERK2 IC50): ≥ 8.00
- pIC50 (ERK2 kinase; read-out: IC50 against ERK2 kinase): 8.48
- pIC50 [1]: 6.44
SMILES: Cn1nccc1Nc1cc(-c2cc(F)c3c(c2)CCN3C(=O)Cc2cccnc2Cl)ccn1 [Example P9, 2-(2-chloropyridin-3-yl)-1-(7-fluoro-5-(2-((1-methyl-1H-pyrazol-5-yl)amino)pyridin-4-yl)indolin-1-yl)ethan-1-one]
